Legend:
[1] = biological target: T1, Voltage-gated inwardly rectifying potassium channel KCNH2 (Homo sapiens, UniProt Q12809); experiment: Displacement of [3H]astemizole from human ERG K+ channel expressed in HEK293 cells by scintillation spectrophotometric analysis
hERG (KCNH2) K+ channel [2] = biological target: T2, hERG (KCNH2) K+ channel (Homo sapiens, UniProt Q12809); experiment: Displacement of [3H]astemizole from human ERG K+ channel expressed in HEK293 cells at 10 uM by scintillation spectrophotometric analysis
T2 sequence (Q12809 whole entry): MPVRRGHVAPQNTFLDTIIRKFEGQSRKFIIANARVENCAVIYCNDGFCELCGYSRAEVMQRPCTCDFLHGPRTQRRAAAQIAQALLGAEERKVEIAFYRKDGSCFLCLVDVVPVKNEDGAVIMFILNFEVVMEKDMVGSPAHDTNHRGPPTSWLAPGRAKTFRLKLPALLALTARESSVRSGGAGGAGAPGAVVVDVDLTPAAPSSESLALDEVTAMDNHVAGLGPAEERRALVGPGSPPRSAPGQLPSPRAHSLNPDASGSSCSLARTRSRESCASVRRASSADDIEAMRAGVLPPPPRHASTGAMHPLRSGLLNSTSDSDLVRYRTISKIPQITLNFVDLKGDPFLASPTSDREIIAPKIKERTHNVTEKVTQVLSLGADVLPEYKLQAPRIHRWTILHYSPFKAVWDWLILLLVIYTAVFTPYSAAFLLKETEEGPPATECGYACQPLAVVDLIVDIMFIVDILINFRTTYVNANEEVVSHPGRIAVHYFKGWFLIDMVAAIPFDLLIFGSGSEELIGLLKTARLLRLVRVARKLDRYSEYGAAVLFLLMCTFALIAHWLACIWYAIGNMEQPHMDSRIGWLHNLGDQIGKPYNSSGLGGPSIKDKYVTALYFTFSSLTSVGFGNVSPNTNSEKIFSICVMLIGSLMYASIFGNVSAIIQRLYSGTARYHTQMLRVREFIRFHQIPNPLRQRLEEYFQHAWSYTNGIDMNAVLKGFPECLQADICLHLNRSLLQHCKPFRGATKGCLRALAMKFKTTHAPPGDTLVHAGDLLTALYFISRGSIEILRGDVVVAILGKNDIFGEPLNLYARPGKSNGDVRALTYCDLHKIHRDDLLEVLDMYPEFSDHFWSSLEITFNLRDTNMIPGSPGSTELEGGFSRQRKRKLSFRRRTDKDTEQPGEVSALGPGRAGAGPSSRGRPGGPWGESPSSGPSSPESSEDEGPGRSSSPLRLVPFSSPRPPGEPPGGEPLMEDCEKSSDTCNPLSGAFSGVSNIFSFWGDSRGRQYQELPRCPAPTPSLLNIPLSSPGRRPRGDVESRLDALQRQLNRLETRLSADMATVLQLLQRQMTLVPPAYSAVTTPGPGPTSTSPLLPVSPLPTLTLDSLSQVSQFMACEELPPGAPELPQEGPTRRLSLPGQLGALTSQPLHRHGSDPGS

hERG (KCNH2) K+ channel [3] = biological target: T2, hERG (KCNH2) K+ channel; experiment: Assay index, ratio of IC50 for human ERG K+ channel expressed in HEK293 cells by patch clamp assay to IC50 for human ERG K+ channel expressed in HEK293 cells by radioligand binding assay; type: cell-based; settings: HEK293 cells expressing human ERG K+ channel, read-out: Ratio IC50
[4] = biological target: T1, Voltage-gated inwardly rectifying potassium channel KCNH2; experiment: Inhibition of human ERG K+ channel expressed in HEK293 cells after 15 mins by patch clamp assay; type: cell-based
[5] = HEK293 cells expressing human ERG K+ channel, probe [3H]astemizole

T1 sequence (Q12809 whole entry): as above

| Compound | IC50 [1] [nM] | other results |
| --- | --- | --- |
| CCCCCCC#Cc1cccc(C#CCCCCCC)[n+]1C | 1990 | – |
| C[n+]1c(C#CCOc2ccccc2Cl)cccc1C#CCOc1ccccc1Cl | – | inhibition at 10 µM (hERG (KCNH2) K+ channel [2]; [5]): 16% |
| Cc1ccc(CCOCCCc2cccc(CCCOCCc3ccc(C)cc3)[n+]2C)cc1 | 371 | – |
| C[n+]1c(COc2ccccc2)cccc1COc1ccccc1 | 767 | – |
| Cc1ccc(Cc2cccc(COc3ccc(C)cc3)n2)cc1 | – | inhibition at 10 µM (hERG (KCNH2) K+ channel [2]; hek293): 9% |
| c1ccc(OCc2cccc(COc3ccccc3)n2)cc1 | – | inhibition at 10 µM (hERG (KCNH2) K+ channel [2]; hek293): 15% |
| Cc1ccc(OCCCc2cccc(CCCOc3ccc(C)cc3)[n+]2C)cc1 | 86 | selectivity ratio (hERG (KCNH2) K+ channel [3]): 11.2; IC50 [4]: 962 nM |
| Cc1ccc(CCOCc2cccc(COCCc3ccc(C)cc3)[n+]2C)cc1 | 135 | – |
| Cc1ccc(C#Cc2cccc(C#Cc3ccc(C)cc3)[n+]2C)cc1 | 285 | – |
| C[n+]1c(C#Cc2ccccc2Cl)cccc1C#Cc1ccccc1Cl | 3900 | – |
| C(#Cc1cccc(C#Cc2ccccc2)n1)c1ccccc1 | – | inhibition at 10 µM (hERG (KCNH2) K+ channel [2]; [5]): -11% |
| Cc1ccc(COCc2cccc(COCc3ccc(C)cc3)[n+]2C)cc1 | 107 | – |
| C[n+]1c(CCCOc2ccccc2)cccc1CCCOc1ccccc1 | 208 | – |
| C[n+]1c(C#Cc2cccc(Cl)c2)cccc1C#Cc1cccc(Cl)c1 | 4020 | – |
| Cc1ccc(Cc2ccnc(COc3ccc(C)cc3)c2)cc1 | > 10000 | inhibition at 10 µM (hERG (KCNH2) K+ channel [2]; [5]): -3% |
| Cc1ccc(OCCCc2cc(N)cc(CCCOc3ccc(C)cc3)n2)cc1 | 170 | selectivity ratio (hERG (KCNH2) K+ channel [3]): 0.86; IC50 [4]: 146 nM |
| c1ccc(CCc2cccc(CCc3ccccc3)c2)cc1 | – | inhibition at 10 µM (hERG (KCNH2) K+ channel [2]; [5]): 8% |
| Cc1ccc(CCCOCc2cccc(COCCCc3ccc(C)cc3)[n+]2C)cc1 | 24 | selectivity ratio (hERG (KCNH2) K+ channel [3]): 8.1; IC50 [4]: 194 nM |
| Cc1ccc(CCc2cccc(CCc3ccc(C)cc3)n2)cc1 | – | IC50 ([1]; human, hek293): > 10000 nM |
| c1ccc(CCc2cccc(CCc3ccccc3)n2)cc1 | 1610 | – |
| C[n+]1c(C#Cc2ccc(-c3ccccc3)cc2)cccc1C#Cc1ccc(-c2ccccc2)cc1 | 294 | – |
